Measured values as given in patent publication US12479830B2, “Homopiperazinyl and homopiperidinyl quinazolin-4(3H)-one derivatives having multimodal activity against pain” (ESTEVE PHARMACEUTICALS, S.A., priority 2019, dated 2025).

The molecules below were run against Human α2δ-1 subunit of Cav2.2 calcium channel (Homo sapiens, UniProt P54289) (assay: Human α2δ-1 subunit of Cav2.2 calcium channel assay ([3H]-gabapentin binding)). Settings: binding to the α2δ-1 subunit of voltage-gated calcium channels, expressed as Ki class; + also covers inhibition between 1% and 50%.
Sequence of Human α2δ-1 subunit of Cav2.2 calcium channel (P54289 25-1103): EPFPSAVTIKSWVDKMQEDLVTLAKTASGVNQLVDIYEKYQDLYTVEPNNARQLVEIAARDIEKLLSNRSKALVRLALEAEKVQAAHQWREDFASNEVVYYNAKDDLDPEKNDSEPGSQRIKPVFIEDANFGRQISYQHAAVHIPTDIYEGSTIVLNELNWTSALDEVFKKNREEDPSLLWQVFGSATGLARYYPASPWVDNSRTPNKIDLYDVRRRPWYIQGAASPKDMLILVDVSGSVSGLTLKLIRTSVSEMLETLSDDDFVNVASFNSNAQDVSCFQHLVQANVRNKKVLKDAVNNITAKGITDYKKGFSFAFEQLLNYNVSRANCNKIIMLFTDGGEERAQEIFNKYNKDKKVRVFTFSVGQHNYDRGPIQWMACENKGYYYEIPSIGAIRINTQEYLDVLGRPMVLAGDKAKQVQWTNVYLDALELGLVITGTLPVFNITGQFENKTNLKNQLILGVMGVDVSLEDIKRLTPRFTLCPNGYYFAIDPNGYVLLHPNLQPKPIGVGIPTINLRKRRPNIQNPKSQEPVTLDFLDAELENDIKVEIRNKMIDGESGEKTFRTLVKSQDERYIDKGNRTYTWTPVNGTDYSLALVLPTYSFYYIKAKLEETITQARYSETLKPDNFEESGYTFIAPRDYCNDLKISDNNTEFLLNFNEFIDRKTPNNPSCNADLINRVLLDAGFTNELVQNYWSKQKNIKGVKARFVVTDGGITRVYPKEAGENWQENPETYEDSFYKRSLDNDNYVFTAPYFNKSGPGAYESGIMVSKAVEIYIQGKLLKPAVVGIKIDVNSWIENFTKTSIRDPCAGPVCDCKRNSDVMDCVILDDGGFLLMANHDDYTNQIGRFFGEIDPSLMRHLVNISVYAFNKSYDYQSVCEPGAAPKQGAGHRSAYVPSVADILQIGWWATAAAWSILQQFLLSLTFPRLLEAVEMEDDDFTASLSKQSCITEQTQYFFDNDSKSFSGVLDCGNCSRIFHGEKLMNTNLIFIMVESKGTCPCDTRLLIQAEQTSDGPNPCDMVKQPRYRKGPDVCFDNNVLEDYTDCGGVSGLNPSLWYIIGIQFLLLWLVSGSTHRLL
Protocol: Human α2δ-1 Subunit of Cav2.2 Calcium Channel Assay
Human α2δ-1 enriched membranes (2.5 μg) were incubated with 15 nM of radiolabeled [^3H]-Gabapentin in assay buffer containing Hepes-KOH 10 mM. pH 7.4. NSB (non specific binding) was measured by adding 10 μM pregabalin. The binding of the test compound was measured at either one concentration (% inhibition at 1 or 10 μM) or five different concentrations to determine affinity values (Ki). After 60 min incubation at 27° C., binding reaction was terminated by filtering through Multiscreen GF/C (Millipore) presoaked in 0.5% polyethyleneimine in Vacuum Manifold Station, followed by 3 washes with ice-cold filtration buffer containing 50 mM Tris-HCl, pH 7.4. Filter plates were dried at 60° C. for 1 h and 30 μL of scintillation cocktail were added to each well before radioactivity reading. Readings were performed in a Trilux 1450 Microbeta radioactive counter (Perkin Elmer).

SMILES	Ki [nM]
CCCC(c1nc2ncc(F)cc2c(=O)n1CC1CC1)N1CCN[C@@H](C)CC1 (single isomer, unassigned) [Example 194]	> 5000
CCCC(c1nc2cc(Br)ccc2c(=O)n1CC)N1CCCNCC1 (stereo not shown) [Example 4, 2-(1-(1,4-diazepan-1-yl)butyl)-7-bromo-3-ethylquinazolin-4(3H)-one]	< 500
CCCC(c1nc2ccc(C)cc2c(=O)n1CC)N1CCCN(C)CC1 (stereo not shown) [Example 8, 3-ethyl-6-methyl-2-(1-(4-methyl-1,4-diazepan-1-yl)butyl)quinazolin-4(3H)-one]	< 500
CCCC(c1nc2cc(C#N)ccc2c(=O)n1CC)N1CCCN(C)CC1 (stereo not shown) [Example 9, 3-ethyl-2-(1-(4-methyl-1,4-diazepan-1-yl)butyl)-4-oxo-3,4-dihydroquinazoline-7-carbonitrile]	< 500
CCCC(c1nc2ccc(C#N)cc2c(=O)n1CC)N1CCCN(C)CC1 (stereo not shown) [Example 10, 3-ethyl-2-(1-(4-methyl-1,4-diazepan-1-yl)butyl)-4-oxo-3,4-dihydroquinazoline-6-carbonitrile]	< 500
CCCC(c1nc2cc(C)ccc2c(=O)n1CC)N1CCCN(C)CC1 (stereo not shown) [Example 11, 3-ethyl-7-methyl-2-(1-(4-methyl-1,4-diazepan-1-yl)butyl)quinazolin-4(3H)-one]	< 500
CCCC(c1nc2ccc(I)cc2c(=O)n1CC)N1CCCN(C)CC1 (stereo not shown) [Example 12, 3-ethyl-6-iodo-2-(1-(4-methyl-1,4-diazepan-1-yl)butyl)quinazolin-4(3H)-one]	< 500
CCCC(c1nc2cc(F)c(Br)cc2c(=O)n1CC)N1CCCN(C)CC1 (stereo not shown) [Example 13, 6-bromo-3-ethyl-7-fluoro-2-(1-(4-methyl-1,4-diazepan-1-yl)butyl)quinazolin-4(3H)-one]	< 500
CCC[C@H](c1nc2ccc(OC)cc2c(=O)n1CC)N1CCCN(C)CC1 [Example 15, (R)-3-ethyl-6-methoxy-2-(1-(4-methyl-1,4-diazepan-1-yl)butyl)quinazolin-4(3H)-one]	< 500
CCC[C@@H](c1nc2ccc(OC)cc2c(=O)n1CC)N1CCCN(C)CC1 [Example 16, (S)-3-ethyl-6-methoxy-2-(1-(4-methyl-1,4-diazepan-1-yl)butyl)quinazolin-4(3H)-one]	> 5000

Now from value to molecule:

Ki [nM]	SMILES
< 500	CCCC(c1nc2ccc(Br)cc2c(=O)n1CC)N1CCCN(C)CC1 (stereo not shown) [Example 1, 6-Bromo-3-ethyl-2-(1-(4-methyl-1,4-diazepan-1-yl)butyl)quinazolin-4(3H)-one]
< 500	CCCC(c1nc2ccc(Br)cc2c(=O)n1CC)N1CCCNCC1 (stereo not shown) [Example 2, 2-(1-(1,4-diazepan-1-yl)butyl)-6-bromo-3-ethylquinazolin-4(3H)-one]
< 500	CCCC(c1nc2cc(Br)ccc2c(=O)n1CC)N1CCCN(C)CC1 (stereo not shown) [Example 3, 7-bromo-3-ethyl-2-(1-(4-methyl-1,4-diazepan-1-yl)butyl)quinazolin-4(3H)-one]
500 to 5000	CCCC(c1nc2ccc(Br)cc2c(=O)n1CC)N1CCCN(CCc2ccccc2)CC1 (stereo not shown) [Example 5, 6-bromo-3-ethyl-2-(1-(4-phenethyl-1,4-diazepan-1-yl)butyl)quinazolin-4(3H)-one]
> 5000	CCCC(c1nc2ccc(Br)cc2c(=O)n1CC)N1CCCN(Cc2ccccc2)CC1 (stereo not shown) [Example 6, 2-(1-(4-benzyl-1,4-diazepan-1-yl)butyl)-6-bromo-3-ethylquinazolin-4(3H)-one]
< 500	CCCC(c1nc2ccc(Br)cc2c(=O)n1CC)N1CCCN(CC)CC1 (stereo not shown) [Example 7, 6-bromo-3-ethyl-2-(1-(4-ethyl-1,4-diazepan-1-yl)butyl)quinazolin-4(3H)-one]
500 to 5000	CCCC(c1nc2ccc(Br)cc2c(=O)n1CCOC)N1CCCN(C)CC1 (stereo not shown) [Example 14, 6-bromo-3-(2-methoxyethyl)-2-(1-(4-methyl-1,4-diazepan-1-yl)butyl)quinazolin-4(3H)-one]

These molecules were tested against T1, Human σ1 receptor (Homo sapiens, UniProt Q99720) (assay: Human σ1 receptor radioligand assay ([3H](+)-pentazocine binding)). Settings: binding to the σ1 receptor, expressed as Ki class; + also covers inhibition between 1% and 50%.
T1 construct: expressed in transfected cells; host or cells: HEK-293
T1 sequence (Q99720 whole entry): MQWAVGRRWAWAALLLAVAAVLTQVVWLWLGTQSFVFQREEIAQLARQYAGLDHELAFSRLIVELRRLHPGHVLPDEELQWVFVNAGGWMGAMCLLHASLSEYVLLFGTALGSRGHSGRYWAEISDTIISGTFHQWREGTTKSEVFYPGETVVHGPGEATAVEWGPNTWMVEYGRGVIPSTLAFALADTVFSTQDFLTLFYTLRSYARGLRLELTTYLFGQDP
Protocol: Human σ1 Receptor Radioligand Assay
Transfected HEK-293 membranes (7 μg) were incubated with 5 nM of [^3H](+)-pentazocine in assay buffer containing Tris-HCl 50 mM at pH 8. NBS (non-specific binding) was measured by adding 10 μM haloperidol. The binding of the test compound was measured at either one concentration (% inhibition at 1 or 10 μM) or five different concentrations to determine affinity values (Ki). Plates were incubated at 37° C. for 120 minutes. After the incubation period, the reaction mix was then transferred to MultiScreen HTS, FC plates (Millipore), filtered and plates were washed 3 times with ice-cold 10 mM Tris-HCL (pH7.4). Filters were dried and counted at approximately 40% efficiency in a MicroBeta scintillation counter (Perkin-Elmer) using EcoScint liquid scintillation cocktail.

SMILES	Ki [nM]
CCCC(c1nc2ncc(F)cc2c(=O)n1CC1CC1)N1CCN[C@@H](C)CC1 (single isomer, unassigned) [Example 194]	> 1000
CCCC(c1nc2cc(Br)ccc2c(=O)n1CC)N1CCCNCC1 (stereo not shown) [Example 4, 2-(1-(1,4-diazepan-1-yl)butyl)-7-bromo-3-ethylquinazolin-4(3H)-one]	> 1000
CCCC(c1nc2ccc(C)cc2c(=O)n1CC)N1CCCN(C)CC1 (stereo not shown) [Example 8, 3-ethyl-6-methyl-2-(1-(4-methyl-1,4-diazepan-1-yl)butyl)quinazolin-4(3H)-one]	> 1000
CCCC(c1nc2cc(C#N)ccc2c(=O)n1CC)N1CCCN(C)CC1 (stereo not shown) [Example 9, 3-ethyl-2-(1-(4-methyl-1,4-diazepan-1-yl)butyl)-4-oxo-3,4-dihydroquinazoline-7-carbonitrile]	> 1000
CCCC(c1nc2ccc(C#N)cc2c(=O)n1CC)N1CCCN(C)CC1 (stereo not shown) [Example 10, 3-ethyl-2-(1-(4-methyl-1,4-diazepan-1-yl)butyl)-4-oxo-3,4-dihydroquinazoline-6-carbonitrile]	> 1000
CCCC(c1nc2cc(C)ccc2c(=O)n1CC)N1CCCN(C)CC1 (stereo not shown) [Example 11, 3-ethyl-7-methyl-2-(1-(4-methyl-1,4-diazepan-1-yl)butyl)quinazolin-4(3H)-one]	> 1000
CCCC(c1nc2ccc(I)cc2c(=O)n1CC)N1CCCN(C)CC1 (stereo not shown) [Example 12, 3-ethyl-6-iodo-2-(1-(4-methyl-1,4-diazepan-1-yl)butyl)quinazolin-4(3H)-one]	< 500
CCCC(c1nc2cc(F)c(Br)cc2c(=O)n1CC)N1CCCN(C)CC1 (stereo not shown) [Example 13, 6-bromo-3-ethyl-7-fluoro-2-(1-(4-methyl-1,4-diazepan-1-yl)butyl)quinazolin-4(3H)-one]	< 500
CCC[C@H](c1nc2ccc(OC)cc2c(=O)n1CC)N1CCCN(C)CC1 [Example 15, (R)-3-ethyl-6-methoxy-2-(1-(4-methyl-1,4-diazepan-1-yl)butyl)quinazolin-4(3H)-one]	> 1000
CCC[C@@H](c1nc2ccc(OC)cc2c(=O)n1CC)N1CCCN(C)CC1 [Example 16, (S)-3-ethyl-6-methoxy-2-(1-(4-methyl-1,4-diazepan-1-yl)butyl)quinazolin-4(3H)-one]	> 1000

Second part, the molecule after the results:

Ki [nM]	SMILES
< 500	CCCC(c1nc2ccc(Br)cc2c(=O)n1CC)N1CCCN(C)CC1 (stereo not shown) [Example 1, 6-Bromo-3-ethyl-2-(1-(4-methyl-1,4-diazepan-1-yl)butyl)quinazolin-4(3H)-one]
> 1000	CCCC(c1nc2ccc(Br)cc2c(=O)n1CC)N1CCCNCC1 (stereo not shown) [Example 2, 2-(1-(1,4-diazepan-1-yl)butyl)-6-bromo-3-ethylquinazolin-4(3H)-one]
> 1000	CCCC(c1nc2cc(Br)ccc2c(=O)n1CC)N1CCCN(C)CC1 (stereo not shown) [Example 3, 7-bromo-3-ethyl-2-(1-(4-methyl-1,4-diazepan-1-yl)butyl)quinazolin-4(3H)-one]
< 500	CCCC(c1nc2ccc(Br)cc2c(=O)n1CC)N1CCCN(CCc2ccccc2)CC1 (stereo not shown) [Example 5, 6-bromo-3-ethyl-2-(1-(4-phenethyl-1,4-diazepan-1-yl)butyl)quinazolin-4(3H)-one]
< 500	CCCC(c1nc2ccc(Br)cc2c(=O)n1CC)N1CCCN(Cc2ccccc2)CC1 (stereo not shown) [Example 6, 2-(1-(4-benzyl-1,4-diazepan-1-yl)butyl)-6-bromo-3-ethylquinazolin-4(3H)-one]
< 500	CCCC(c1nc2ccc(Br)cc2c(=O)n1CC)N1CCCN(CC)CC1 (stereo not shown) [Example 7, 6-bromo-3-ethyl-2-(1-(4-ethyl-1,4-diazepan-1-yl)butyl)quinazolin-4(3H)-one]
> 1000	CCCC(c1nc2ccc(Br)cc2c(=O)n1CCOC)N1CCCN(C)CC1 (stereo not shown) [Example 14, 6-bromo-3-(2-methoxyethyl)-2-(1-(4-methyl-1,4-diazepan-1-yl)butyl)quinazolin-4(3H)-one]
